Test results published in patent publication US4748251A, “7-n-aminomethylenemitomycin derivative” (priority 1985, dated 1988).
In brackets after ≈: the same amount, converted by molar mass. Like-named read-outs stand apart in the source and are kept apart here.

Experiments:
[1] = tested on: Streptococcus faecalis ATCC 10541; test: Antibacterial activity, agar dilution method, pH 7.0 (SF); assay type: cell-based; details: Enterococcus faecalis
Method: (§1) Antibacterial activities of some compounds covered by the present invention against various bacteria are shown by the minimum growth inhibitory concentration (μg/ml) in Table 1. The minimum growth inhibitory concentration was measured at pH 7.0 according to the agar dilution method. In the table, bacteria are indicated by the following letters.
SF: Streptococcus faecalis ATCC 10541

[2] = tested on: Staphylococcus aureus ATCC 6538P; test: Antibacterial activity, agar dilution method, pH 7.0 (SA); assay type: cell-based; details: ATCC6538P
Method: as §1
SA: Staphylococcus aureus ATCC 6538P

[3] = tested on: Bacillus subtilis 10707; test: Antibacterial activity, agar dilution method, pH 7.0 (BS); assay type: cell-based
Method: as §1
BS: Bacillus subtilis 10707

[4] = tested on: Proteus vulgalis ATCC 6897; test: Antibacterial activity, agar dilution method, pH 7.0 (PV); assay type: cell-based
Method: as §1
PV: Proteus vulgalis ATCC 6897

[5] = tested on: Shigella sonnei ATCC 9290; test: Antibacterial activity, agar dilution method, pH 7.0 (SS); assay type: cell-based
Method: as §1
SS: Shigella sonnei ATCC 9290

[6] = tested on: Klebsiella pneumoniae ATCC 10031; test: microbe, parasite or virus in culture; assay type: cell-based; details: ATCC10031, pH 7, read-out: minimum growth inhibitory concentration
Method: The minimum growth inhibitory concentration was measured at pH 7.0 according to the agar dilution method. In the table, bacteria are indicated by the following letters.
KP: Klebsiella pneumoniae ATCC 10031

[7] = tested on: leukemia P-388; test: Anti-tumor activity against leukemia P-388; assay type: in vivo, mouse (CDF1); details: for maximum increased life span: P-388, Table 3, maximum over doses; for ILS %: i.p. once, 33 days
Method: (§2) Ascites was sampled from the abdominal cavity of tumor-bearing mice (DBA/2) 7 days after transplantation of P-388 ascitic tumor. The number of the P-388 cells in the ascites was counted. A suspension of the tumor cells of 5×10^6 /ml was prepared using sterilized physiological saline, and 0.2 ml of the suspension (containing 1×10^6 cells) was intraperitoneally transplanted to CDF1 mice weighing 20 to 25 g. Twenty-four hours after the transplantation of the tumor, a test compound was intraperitoneally administered once to groups of the CDF1 mice, each group consisting of 6 mice. […] The effect of the compound was evaluated by a ratio of a mean survival days of the group treated with the compound to a mean survival days of the control group (untreated group) after 33 days of observation (Increased Life Span, ILS %).

[8] = tested on: Sarcoma 180 solid tumor; test: Anti-tumor activity against Sarcoma 180 solid tumor in mice; assay type: in vivo, mouse (ddY strain); details: Mus musculus, Sarcoma-180, ip, 168 h; dose reducing tumor volume to 50% of control; intraperitoneal 24 hours after implantation; tumor measured 7 days after implantation
Description: (§3) Taking some of the compounds falling within the present invention as examples, anti-tumor activity (ED50) against Sarcoma 180 solid tumor and acute toxicity (LD50) as well as effect on peripheral leucocytes number (WBC4000) are shown in Table 2.
(1) Effect against Sarcoma 180 solid tumor cells:
5×10^6 cells of Sarcoma 180 solid tumor were implanted into ddY mice. 7 days later, ascites cells were sampled. The cells were washed once with a sterilized physiological solution of sodium chloride and were used to prepare a cell supspension containing 5×10^7 cells per ml. On each occasion, 0.1 ml of the cell suspension was subcutaneously implanted into the right axilla of a male mouse (ddY strain; body weight 20±2 g). The test compound was dissolved in a physiological solution of sodium chloride with or without addition of Tween 80 and was administered intraperitoneally into each mouse of a group consisting of 5 mice at a dose of 0.1-0.2 ml, 24 hours after the implantation of the tumor cells.
The anti-tumor activity was determined in the following manner. 7 days after the implantation, the major axis (a) and the minor axis (b) of the tumor were measured to calculate a value of "a×b^2 /2" which corresponds to the volume of the tumor. The anti-tumor activity was expressed by the ratio of the volume of the tumors (T) of the group of animals administered with the test compound to the corresponding volume of tumors (C) of the untreated animals.
(2) Determination of ED50 :
On graph paper, T/C (the ratio of the volume of tumors of treated animals to that of control animals) was indicated by an arithmetic scale on the longitudinal axis and the administered amount of the test compound was indicated by a logarithmic scale on the lateral axis. The relationship between the dose and T/C was shown by a straight line determined by the method of least squares, from which a dose corresponding to T/C of 0.5 was obtained.

[9] = Acute toxicity in mice; design: species or system mouse (ddY strain); details: mouse, in vivo, ip; intraperitoneally once, ddY mice, 14 days observation, Beherns Kaerber's method
Method: as §3
Each animal of the test group consisting of 5 ddY mice was administered intraperitoneally once with a test compound. […] The LD50 was determined by Beherns Kaerber's method.

[10] = tested on: peripheral leucocytes; test: Effect on the peripheral leucocytes number in tumor-carrying mice; assay type: in vivo, mouse (ddY strain); details: dose which reduces peripheral leucocytes number to 4000/mm^3; intraperitoneal, blood 4 days later
Description: as §3
WBC4000 indicates the dose of a substance which reduces the peripheral leucocytes number to 4000/mm^3.
(4) Effect on the peripheral leucocytes number:
Sarcoma 180 solid tumor cells (5×10^6) were subcutaneously implanted into the right axilla of each mouse (body weight 20±2 g) of a group consisting of 5 male mice (ddY strain). 24 hours after implantation,a test compound was intraperitoneally administered to each animal. 4 days later, blood (each 0.02 ml) was collected from the suborbital plexus vein of each tumor-carrying animal. The collected sample of blood was dispersed in 9.98 ml of Cell-Kit Seven solution. One drop of saponin solution was added to the sample to dissolve erythrocytes and then a microcell counter was used to count the number of leucocytes. On graph paper, the number of leucocytes was indicated on the y-axis by an arithmetic scale and the dose of the test compound was indicated on the x-axis by a logarithmic scale. The relationship between the number of peripheral leucocytes and the dosage of the test compound was plotted and the dosage corresponding to 4000 peripheral leucocytes/mm^3 (about half the number of leucocytes of normal mice) was obtained. This value is denoted in Table 2 by WBC4000.

[11] = tested on: P-388 leukemia resistant to mitomycin C; test: Anti-tumor activity against P-388 leukemia resistant to mitomycin C; assay type: in vivo, mouse (CDF1); details: for maximum increased life span: P-388 resistant to mitomycin C, Table 4, maximum over doses; for ILS %: i.p. once
Method: as §2

[12] = tested on: tumor; test: Anti-tumor activity of Compound A stated in words (GB 2121796A / inventors' own observation); details: noted by the present inventors
[13] = tested on: tumor; details: reported in GB 2121796A; cited from earlier work
[14] = ATCC10541, pH 7, read-out: minimum growth inhibitory concentration
[15] = pH 7, read-out: minimum growth inhibitory concentration
[16] = Bacillus subtilis, 10707, pH 7, read-out: minimum growth inhibitory concentration
[17] = ATCC9290, pH 7, read-out: minimum growth inhibitory concentration

SMILES | MIC [1, 14] [µg/mL] | MIC [2, 15] [µg/mL] | MIC [3, 16] [µg/mL] | MIC [4, 15] [µg/mL] | MIC [5, 17] [µg/mL] | MIC [6] [µg/mL] | ED50 [8] [mg/kg] | LD50 at 336 h [9] [mg/kg] | WEC4000 [10] [mg/kg] | further results
C=C1C2=C(C(=O)C(C)=C(N=CN(C)C)C2=O)N2C[C@H]3[C@H](N3C)[C@]12O (stereo partly drawn) [Compound 1, 9a-O-Demethyl-7-N-dimethylaminomethylenemitomycin G] | 0.078 (≈ 0.238 µM) | 0.078 (≈ 0.238 µM) | 0.078 (≈ 0.238 µM) | 10 (≈ 30.5 µM) | 10 (≈ 30.5 µM) | 10 (≈ 30.5 µM) | – | – | – | ILS ([7]; dose 10 mg/kg, similar experiment): 83%
C=C1C2=C(C(=O)C(C)=C(N=CN(C)C)C2=O)N2C[C@@H]3N[C@@H]3[C@]12OC [Compound 2, 1a-Demethyl-7-N-dimethylaminoethylenemitomycin G] | 1.3 (≈ 3.96 µM) | 0.31 (≈ 0.944 µM) | 0.078 (≈ 0.238 µM) | 10 (≈ 30.5 µM) | 20 (≈ 60.9 µM) | 10 (≈ 30.5 µM) | – | – | – | –
CC1=C(N=CN(C)C)C(=O)C2=C(C1=O)N1C[C@H]3[C@H](N3C)[C@]1(O)[C@H]2COC(N)=O (stereo partly drawn) [Compound 3a, 7-N-Dimethylaminomethylenemitomycin D] | 5 (≈ 12.8 µM) | 10 (≈ 25.7 µM) | 2.5 (≈ 6.42 µM) | 20 (≈ 51.4 µM) | > 20 | 2.5 (≈ 6.42 µM) | 3.9 | 8.3 | 4.3 | maximum increased life span [7]: 213%; ILS % ([7]; dose 0.25 mg/kg): 28%; ILS % ([7]; dose 0.5 mg/kg): 53%; ILS % ([7]; dose 1.0 mg/kg): 58%; ILS % ([7]; dose 2.0 mg/kg): 58%; ILS % ([7]; dose 4.0 mg/kg): 145%; ILS % ([7]; dose 6.0 mg/kg): 213%; ILS % ([7]; dose 8.0 mg/kg): 98%; anti-tumor activity against leukemia P-388 compared with Compound A ([7]; in words, versus Compound A): more excellent anti-tumor activity than Compound A; maximum increased life span [11]: 143%; ILS % ([11]; dose 1.0 mg/kg): 28%; ILS % ([11]; dose 2.0 mg/kg): 103%; ILS % ([11]; dose 4.0 mg/kg): 143%; ILS % ([11]; dose 6.0 mg/kg): 58%; ILS % ([11]; dose 8.0 mg/kg): 51%
CC1=C(N=CN(C)C)C(=O)C2=C(C1=O)N1C[C@H]3[C@H](N3C)[C@]1(O)[C@H]2COC(=O)N=CN(C)C (stereo partly drawn) [Compound 3b, 7-N,N^10-bis(dimethylaminomethylene)mitomycin D] | – | – | – | – | – | – | 20.9 | 26.3 | 18.7 | –
CO[C@]12[C@@H]3[C@H](CN1C1=C(C(=O)C(N=CN(C)C)=C(C)C1=O)[C@@H]2COC(N)=O)N3C (stereo partly drawn) [Compound 4a, 7-N-Dimethylaminomethylenemitomycin E] | 0.63 (≈ 1.56 µM) | 0.63 (≈ 1.56 µM) | 0.16 (≈ 0.397 µM) | 20 (≈ 49.6 µM) | 10 (≈ 24.8 µM) | 2.5 (≈ 6.2 µM) | – | – | – | –
CO[C@]12[C@@H]3[C@H](CN1C1=C(C(=O)C(N=CN(C)C)=C(C)C1=O)[C@@H]2COC(=O)N=CN(C)C)N3C (stereo partly drawn) [Compound 4b, 7-N,N^10-bis(dimethylaminomethylene)mitomycin E] | 5 (≈ 10.9 µM) | 10 (≈ 21.8 µM) | 2.5 (≈ 5.45 µM) | – | – | 40 (≈ 87.2 µM) | – | – | – | –
CC1=C(N=CN(C)C)C(=O)C2=C(C1=O)N1C[C@H]3[C@H](N3C)[C@]1(O)[C@@H]2COC(N)=O (stereo partly drawn) [Compound 6c, 9-Epi-7-N-dimethylaminomethylenemitomycin D] | 1.3 (≈ 3.34 µM) | 2.5 (≈ 6.42 µM) | 0.63 (≈ 1.62 µM) | 5 (≈ 12.8 µM) | 40 (≈ 103 µM) | 0.63 (≈ 1.62 µM) | 14 | 9.4 | 11.2 | –
CO[C@@]12[C@H](COC(N)=O)C3=C(C(=O)C(C)=C(N=CN(C)C)C3=O)N1C[C@@H]1N[C@@H]12 [Compound A, 7-N-Dimethylaminomethylenemitomycin C] | – | – | – | – | – | – | – | – | – | maximum increased life span [7]: 75%; ILS % ([7]; dose 0.0625 mg/kg): 15%; ILS % ([7]; dose 0.125 mg/kg): 48%; ILS % ([7]; dose 0.25 mg/kg): 45%; ILS % ([7]; dose 0.5 mg/kg): 63%; ILS % ([7]; dose 1.0 mg/kg): 68%; ILS % ([7]; dose 2.0 mg/kg): 75%; ILS % ([7]; dose 4.0 mg/kg): 20%; maximum increased life span [11]: 73%; ILS % ([11]; dose 0.25 mg/kg): 47%; ILS % ([11]; dose 0.5 mg/kg): 73%; ILS % ([11]; dose 1.0 mg/kg): 68%; ILS % ([11]; dose 2.0 mg/kg): 47%; ILS % ([11]; dose 4.0 mg/kg): -41%; ILS % ([11]; dose 6.0 mg/kg): -47%; anti-tumor activity [12]: excellent anti-tumor activity; anti-tumor activity [13]: particularly excellent anti-tumor activity
CO[C@@]12[C@H](COC(N)=O)C3=C(C(=O)C(C)=C(N)C3=O)N1C[C@@H]1N[C@@H]12 [MM-C, mitomycin C, reference compound] | – | – | – | – | – | – | – | – | – | MIC ([1]; ATCC10541, SF, pH 7.0, agar dilution, read-out: minimum growth inhibitory concentration): 0.31 µg/mL (≈ 0.927 µM); MIC ([2]; SA, pH 7.0, agar dilution, read-out: minimum growth inhibitory concentration): 0.16 µg/mL (≈ 0.479 µM); MIC ([3]; Bacillus subtilis, 10707, BS, pH 7.0, agar dilution, read-out: minimum growth inhibitory concentration): 0.04 µg/mL (≈ 0.12 µM); MIC ([4]; PV, pH 7.0, agar dilution, read-out: minimum growth inhibitory concentration): 0.08 µg/mL (≈ 0.239 µM); MIC ([5]; ATCC9290, SS, pH 7.0, agar dilution, read-out: minimum growth inhibitory concentration): 2.5 µg/mL (≈ 7.48 µM)
